Results taken from paper PMC5355235, “FLT3 activating mutations display differential sensitivity to multiple tyrosine kinase inhibitors” (Oncotarget, 2017).
Like-named read-outs stand apart in the source and are kept apart here.

Columns and labels:
Format in all cases: cell-based
[1] = test system: BaF3 FLT3 D835N mutant cells; experiment: MTT growth inhibition assay, BaF3 FLT3 D835N cells; details: Mus musculus, no IL-3, 48 h, read-out: Proliferation IC50
Procedure: (§1) Figure 1 Growth of AL mutants in the presence of FLT3 TKI The BaF3 AL mutants were grown in the absence of IL-3 and analyzed by treatment in increasing concentrations of FLT3 TKI for 48 hours, after which growth inhibition was assessed using the MTT assay. Means are representative of at least three independent experiments.
(§2) The cells were grown in the absence of IL3 and analyzed by treatment in increasing concentrations of FLT3 TKI for 48 hours, after which growth inhibition was assessed using the MTT assay. Each experiment was performed at least three times and representative results are shown.
(§3) Based on Trypan Blue exclusion, 2 × 10^4 viable cells were seeded in quadruplicate in a 96-well microtiter plate in the presence or absence of inhibitor for 48 h. The effect of drug activity on cell viability was measured using the 3-(4,5-Dimethylthiazol-2-yl)-2,5-diphenyltetrazolium bromide (MTT) assay according to the manufacturer's instructions (Roche Applied Science, Indianapolis, IN, USA). Following treatment, cells were incubated for 4 h in MTT followed by dissolution in solubilization buffer overnight. Absorbance was measured at 570 nm on a Bio-Rad plate reader (Hercules, CA, USA). […] Results shown are presented as means and are representative of at least three independent experiments.

[2] = test system: BaF3 FLT3 D835Y mutant cells; experiment: MTT growth inhibition assay, BaF3 FLT3 D835Y cells; details: Mus musculus, no IL-3, 48 h, read-out: Proliferation IC50
Procedure: as §1, §2, §3

[3] = test system: BaF3 FLT3 840G+S mutant cells; experiment: MTT growth inhibition assay, BaF3 FLT3 840G+S cells; details: Mus musculus, no IL-3, 48 h, read-out: Proliferation IC50
Procedure: as §1, §2, §3

[4] = test system: BaF3 FLT3 I836T mutant cells; experiment: MTT growth inhibition assay, BaF3 FLT3 I836T cells; details: Mus musculus, no IL-3, 48 h, read-out: Proliferation IC50
Procedure: as §1, §2, §3

[5] = test system: BaF3 FLT3 D835G mutant cells; experiment: MTT growth inhibition assay, BaF3 FLT3 D835G cells; details: Mus musculus, no IL-3, 48 h, read-out: Proliferation IC50
Procedure: as §1, §2, §3

[6] = test system: BaF3 FLT3 D593D mutant cells; experiment: MTT growth inhibition assay, BaF3 FLT3 D593D cells; details: Mus musculus, no IL-3, 48 h, read-out: Proliferation IC50
Procedure: as §1, §2, §3

[7] = test system: BaF3 FLT3 D835A mutant cells; experiment: MTT growth inhibition assay, BaF3 FLT3 D835A cells; details: Mus musculus, read-out: Proliferation IC50
Procedure: as §1, §2, §3

[8] = test system: BaF3 FLT3 D835L+K mutant cells; experiment: MTT growth inhibition assay, BaF3 FLT3 D835L+K cells; details: Mus musculus, no IL-3, 48 h, read-out: Proliferation IC50
Procedure: as §1, §2, §3

[9] = test system: BaF3 FLT3 I836L+D mutant cells; experiment: MTT growth inhibition assay, BaF3 FLT3 I836L+D cells; details: Mus musculus, no IL-3, 48 h, read-out: Proliferation IC50
Procedure: as §1, §2, §3

[10] = test system: BaF3 FLT3 I836S mutant cells; experiment: MTT growth inhibition assay, BaF3 FLT3 I836S cells; details: Mus musculus, read-out: Proliferation IC50
Procedure: as §1, §2, §3

BaF3/ITD cells = experiment: MTT growth inhibition assay, BaF3 FLT3-ITD cells; details: Mus musculus, no IL-3, 48 h, read-out: Proliferation IC50
Procedure: as §1, §2, §3

[11] = BaF3 FLT3 D835A, no IL-3, 48 h, MTT
[12] = BaF3 FLT3 I836S, no IL-3, 48 h, MTT

SMILES	IC50 [1]	IC50 [2]	IC50 [3]	IC50 [4]	IC50 [5]	IC50 [6]	IC50 [7, 11]	IC50 [8]	IC50 [9]	IC50 [10, 12]	IC50 (BaF3/ITD cells)	IC50 ([7]; BaF3, 48 h)	IC50 ([10]; BaF3, 48 h)
Cc1cc2ncc(-c3ccccc3)nc2cc1C [AG1295]	411 nM	> 3000 nM	500 nM	> 3000 nM	423 nM	> 3000 nM	1970 nM	> 3000 nM	> 3000 nM	> 3000 nM	298 nM		
CC1(COc2ccc3c(c2)ncn3-c2ccc3cccc(N4CCC(N)CC4)c3n2)COC1 [Crenolanib]	80 nM	58 nM	83 nM	> 1000 nM	110 nM	70 nM	78.1 nM	> 1000 nM	50 nM	> 1000 nM	57 nM		
Cc1ccc(C(=O)Nc2ccc(CN3CCN(C)CC3)c(C(F)(F)F)c2)cc1C#Cc1cnc2cccnn12 [Ponatinib]	< 1 nM	92 nM	< 1 nM	> 1000 nM	< 1 nM	10.7 nM		> 1000 nM	< 1 nM		< 1 nM	148 nM	> 1000 nM
